# Measurements from article PMC4865847, “Putative histidine kinase inhibitors with antibacterial effect against multi-drug resistant clinical isolates identified by in vitro and in silico screens” (Scientific Reports, 2016).
# Read-outs that look alike come from different tables or passages of the source.
# Experiments:
# [1] = target: T1, E. coli EnvZ (Escherichia coli, UniProt P0AEJ4); experiment: Aggregation analysis by native-PAGE, EnvZ; conditions: 2 mM, 10% DMSO
# T1 construct: The catalytic portion (DHp and CA domain) of E. coli PhoR (PhoR^E), E. coli EnvZ; made in house; host or cells: E. coli RIL
# Method: (§1) E. coli PhoR and EnvZ, and S. aureus PhoR ([…], final concentration) were prepared in kinase buffer. […] DMSO in the assays was maintained to a final concentration 10% (v/v). After 30 min of incubation at room temperature Native polyacrylamide gel electrophoresis (Native-PAGE) loading buffer was added and samples loaded. Coomassie blue staining was used for protein visualization.
# [2] = target: T2, HK WalK (DHp and CA domain) (Streptococcus pneumoniae, UniProt Q8DPL8); experiment: Differential scanning fluorimetry (DSF), WalK; assay type: binding
# T2 construct: WalK (amino acids from 208 to 449); N-terminal His6-3C site of vector pOPINF (own knowledge of the vector); made in house; host or cells: E. coli RIL
# Method: (§2) To monitor protein unfolding, the fluorescent dye Sypro orange was used[26]. Differential scanning fluorimetry (DSF) experiments were conducted in the iCycleriQ Real Time Detection System (Bio-Rad, Hercules, CA). Solutions of 20 μl of 0.1 mg/ml protein (final concentration), 200 μM fragment cocktails or individual fragments (final concentration), 10X sypro orange (final concentration) and buffer (100 mM TrisCl pH 8, 150 mM NaCl) were added to the wells of the 96-well iCycler iQ PCR plate. The plate was heated from 20 to 85 or 99 °C at a heating rate of 1 °C/min. The fluorescent intensity was measured with Ex/Em: 490/530 nm. Prism GraphPad v.5 was used for curve fitting and statistical analysis.
# [3] = target: T3, E. coli PhoR (PhoR^E) (Escherichia coli, UniProt P08400); experiment: In vitro autophosphorylation kinase assay with γ-32P-ATP, PhoR^E; assay type: biochemical; conditions: autophosphorylation, one time point (30 sec), 10% DMSO
# T3 construct: The catalytic portion (DHp and CA domain) of E. coli PhoR (PhoR^E); made in house; host or cells: E. coli RIL
# How it was run: (§3)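 Histidine kinase (0.12 mg/ml, ≈4 μM) incubated with up to 20 mM fragment in 50 mM Tris HCl pH 8.5, 50 mM KCl, 5 mM MgCl2, 0.5 mM EDTA, 0.1 mM DTT; started with 0.1 μCi/μl γ-32P-ATP (0.03–0.06 μM ATP final). Phosphoprotein quantified by SDS-PAGE and phosphor-imaging, curve-fitted; DMSO controls.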
# [4] = tested on: Escherichia coli; experiment: Antibacterial susceptibility testing (MIC/MBC), E. coli; assay type: cell-based; conditions: Escherichia coli
# Method: (§4) Minimal inhibitory concentrations (MICs) were determined following a standard double-dilution method. […] For S. pneumoniae MICs were determined by adapting the standard double-dilution method to anaerobic conditions and of this microorganism (use of Todd Hewitt Yeast extract with 200 U/mL of catalase and continuous monitoring of growth).
# [5] = tested on: HK NblS (CA domain); experiment: Differential scanning fluorimetry (DSF), NblS; assay type: binding, Synechococcus sp. PCC 7942
# Method: as §2
# [6] = tested on: Staphylococcus aureus; experiment: Antibacterial susceptibility testing (MIC/MBC), S. aureus; assay type: cell-based; conditions: Staphylococcus aureus; for MBC: read-out: MBC S. aureus DSM 20231
# Method: as §4
# [7] = target: T3, E. coli PhoR (PhoR^E); experiment: Aggregation analysis by native-PAGE, PhoR^E; conditions: 2 mM (S5 and S6 5 mM), 10% DMSO
# Method: as §1
# [8] = tested on: Staphylococcus epidermidis; experiment: Antibacterial susceptibility testing (MIC/MBC), S. epidermidis; assay type: cell-based
# Method: as §4
# [9] = target: S. aureus PhoR (PhoR^S) (Staphylococcus aureus, UniProt Q2FXN7); experiment: Aggregation analysis by native-PAGE, PhoR^S; conditions: 2 mM (S5 and S6 5 mM), 10% DMSO
# Method: as §1
# [10] = target: T4, S. pneumoniae WalK (Streptococcus pneumoniae, UniProt Q8DPL8); experiment: In vitro autophosphorylation kinase assay with γ-32P-ATP, WalK; assay type: biochemical; conditions: for IC50: autophosphorylation, one time point (30 sec), 10% DMSO
# T4 construct: WalK (amino acids from 208 to 449); N-terminal His6-3C site of vector pOPINF (own knowledge of the vector); made in house; host or cells: E. coli RIL
# How it was run: as §3
# [11] = tested on: E. coli; design: method as in PMID 25561178; conditions: cited from earlier work
# [12] = tested on: Pseudomonas aeruginosa; experiment: Antibacterial susceptibility testing (MIC), P. aeruginosa; assay type: cell-based; conditions: Pseudomonas aeruginosa, ATCC27853; strain ATCC 27853
# Method: (§5) Bacterial strains used in this study for antibacterial susceptibility testing (Table S5) were propagated using standard microbiological procedures. Minimal inhibitory concentrations (MICs) were determined following a standard double-dilution method. MICs were recorded as the lowest concentration of the compound where no visible growth was observed. After plating the dilutions around the MIC or growing them in fresh MH media, minimal bactericidal concentration (MBC) was recorded as the lowest concentration of the compound at which no colonies were formed or no growth was observed, respectively. For S. pneumoniae MICs were determined by adapting the standard double-dilution method to anaerobic conditions and of this microorganism (use of Todd Hewitt Yeast extract with 200 U/mL of catalase and continuous monitoring of growth).
# [13] = Hemolysis assay; assay type: cell-based; conditions: human; erythrocytes from a healthy donor, up to 500 μg/ml, three independent incubations; read-out: LC50 hemolysis
# Method: Hemolytic activity against human erythrocytes taken from a healthy donor was measured as previously described. The hemolysis experiments were carried out in accordance with the guidelines of the United Arab Emirates University (UAEU) Research Ethics Review Board. All experimental protocols were approved by the Research Ethics Review Board of UAEU and informed consent was obtained from all donors.
# [14] = tested on: Acinetobacter baumannii; experiment: Antibacterial susceptibility testing (MIC), A. baumannii; assay type: cell-based; conditions: MDR clinical isolate NM8, read-out: MIC A. baumannii NM8
# Method: as §5
# [15] = tested on: Streptococcus pneumoniae; experiment: Antibacterial susceptibility testing (MIC), S. pneumoniae; assay type: cell-based; conditions: strain 49619
# Method: as §5
# [16] = tested on: Klebsiella pneumoniae; experiment: Antibacterial susceptibility testing (MIC), K. pneumoniae; assay type: cell-based; conditions: Klebsiella pneumoniae, ATCC700603, strain ATCC 700603
# Method: as §5
# [17] = tested on: Stenotrophomonas maltophilia; experiment: Antibacterial susceptibility testing (MIC), S. maltophilia; assay type: cell-based; conditions: clinical isolate B32/1, read-out: MIC S. maltophilia B32/1
# Method: as §5
# [18] = tested on: Streptococcus suis; experiment: Antibacterial susceptibility testing (MIC), S. suis; assay type: cell-based; conditions: Streptococcus suis, read-out: MIC Streptococcus suis 3881/S10, strain 3881/S10
# Method: as §5
# [19] = strain CFT 073, read-out: MIC E. coli CFT 073
# [20] = Staphylococcus epidermidis, DSM20044, strain DSM 20044, read-out: MIC S. epidermidis DSM 20044
# T3 sequence (P08400 210-425): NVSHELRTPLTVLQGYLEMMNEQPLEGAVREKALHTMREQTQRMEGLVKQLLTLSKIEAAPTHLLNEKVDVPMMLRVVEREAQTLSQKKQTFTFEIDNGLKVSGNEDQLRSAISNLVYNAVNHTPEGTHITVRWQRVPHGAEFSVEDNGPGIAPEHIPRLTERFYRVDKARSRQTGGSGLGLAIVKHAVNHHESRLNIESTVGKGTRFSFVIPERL
# T4 sequence (Q8DPL8 208-449): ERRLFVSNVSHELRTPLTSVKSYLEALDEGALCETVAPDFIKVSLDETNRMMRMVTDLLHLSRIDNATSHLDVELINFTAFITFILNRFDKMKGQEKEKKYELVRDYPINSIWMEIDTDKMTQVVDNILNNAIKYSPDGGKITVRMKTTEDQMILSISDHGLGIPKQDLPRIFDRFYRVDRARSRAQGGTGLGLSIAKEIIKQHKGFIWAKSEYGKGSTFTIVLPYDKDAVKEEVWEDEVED
# T1 sequence (P0AEJ4 240-440): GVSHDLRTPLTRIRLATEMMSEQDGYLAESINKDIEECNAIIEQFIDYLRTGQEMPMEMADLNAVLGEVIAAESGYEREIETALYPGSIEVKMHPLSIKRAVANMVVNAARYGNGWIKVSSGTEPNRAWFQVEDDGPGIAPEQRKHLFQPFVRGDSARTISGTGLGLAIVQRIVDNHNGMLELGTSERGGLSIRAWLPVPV
# T2 sequence (Q8DPL8 208-449): as the sequence (Q8DPL8 208-449) above
# Sequence of S. aureus PhoR (PhoR^S) (Q2FXN7 entry or part of it): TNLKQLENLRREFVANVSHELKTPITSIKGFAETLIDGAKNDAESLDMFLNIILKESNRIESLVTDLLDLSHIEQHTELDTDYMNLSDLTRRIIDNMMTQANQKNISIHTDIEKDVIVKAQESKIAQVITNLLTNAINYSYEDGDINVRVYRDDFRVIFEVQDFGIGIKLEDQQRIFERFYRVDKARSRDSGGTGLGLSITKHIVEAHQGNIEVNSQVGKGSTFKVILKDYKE
molecule,measurement,setting,value
"Oc1ccc2c(c1)[nH]c1ccccc12 [F2, 2-hydroxy-carbazole]","HK aggregation, EnvZ",[1],do not cause HK aggregation
same,increase of WalK Tm,[2],3.9 °C
same,IC50,[3]; read-out: IC50 PhoR^E,300 µM
same,MIC,[4]; [19],> 500 µg/mL
same,increase of NblS Tm,[5],2.2 °C
same,MBC,"[6]; DSM20231, strain DSM 20231",> 500 µg/mL
same,MIC,"[6]; DSM20231, strain DSM 20231, read-out: MIC S. aureus DSM 20231",31 µg/mL
same,"HK aggregation, PhoR^E",[7],do not cause HK aggregation
same,MIC,[8]; [20],> 500 µg/mL
same,"HK aggregation, PhoR^S",[9],do not cause HK aggregation
same,IC50,[10]; read-out: IC50 WalK,> 2000 µM
same,inhibitory capacity for WalK autophosphorylation activity,"[10]; single concentration 5 mM, 30 sec",weak inhibitory capacity
teixobactin,antibacterial effect (MIC) against E. coli,[11],2 to 25 µg/mL
NCCc1ccc2c(c1)[nH]c1ccccc12 [F2.3],MIC,[12],> 500 µg/mL
same,IC50,[3]; IC50 PhoR^E,> 2000 µM
same,MIC,"[4]; ATCC25276, strain ATCC 25276, read-out: MIC E. coli ATCC 25276",> 500 µg/mL
same,MIC,[4]; [19],> 500 µg/mL
same,HC50,[13],> 500 µg/mL
same,MIC,"[6]; ATCC reference strain 25293, read-out: MIC S. aureus 25293",125 µg/mL
same,MBC,"[6]; DSM20231, strain DSM 20231",> 500 µg/mL
same,MIC,"[6]; MRSA clinical isolate 127/08, read-out: MIC S. aureus 127/08",250 µg/mL
same,MIC,"[6]; MRSA clinical isolate 145/08, read-out: MIC S. aureus 145/08",250 µg/mL
same,MIC,"[6]; MRSA clinical isolate 274/08, read-out: MIC S. aureus 274/08",> 500 µg/mL
same,MIC,"[6]; MRSA, MRSA clinical isolate S908, read-out: MIC S. aureus S908",250 µg/mL
same,MIC,"[6]; MRSA, MRSA clinical isolate T4/6, read-out: MIC S. aureus T4/6",250 µg/mL
same,MIC,"[6]; MRSA, MRSA clinical isolate V4180, read-out: MIC S. aureus V4180",250 µg/mL
same,MIC,"[6]; MRSA, summary over strains, read-out: MICs for the MRSA strains and S. aureus 25293",125 to 500 µg/mL
same,MBC,"[8]; Staphylococcus epidermidis, DSM20044, strain DSM 20044",63 µg/mL
same,MIC,[8]; [20],31 to 500 µg/mL
same,MIC,"[8]; Staphylococcus epidermidis, clinical isolate T7/3, read-out: MIC S. epidermidis T7/3",31 µg/mL
same,MIC,"[8]; Staphylococcus epidermidis, clinical isolate T37/8, read-out: MIC S. epidermidis T37/8",125 µg/mL
same,MIC,"[8]; Staphylococcus epidermidis, clinical isolate T6119, read-out: MIC S. epidermidis T6119",125 µg/mL
same,MIC,"[8]; Staphylococcus epidermidis, strain RP62A (biofilm producer), read-out: MIC S. epidermidis RP62A",125 µg/mL
same,MIC,"[8]; Staphylococcus epidermidis, strain RP62A/1 (non-biofilm producer), read-out: MIC S. epidermidis RP62A/1",125 µg/mL
same,MIC,"[8]; Staphylococcus epidermidis, summary over strains, read-out: MICs for the S. epidermidis strains",31 to 250 µg/mL
same,MIC S. epidermidis DSM 20044,[8]; strain DSM 20044,31 µg/mL
same,MIC,[14],> 500 µg/mL
same,MIC,[15],4 µg/mL
same,MIC,[16],> 500 µg/mL
same,MIC,[17],> 500 µg/mL
same,MIC,[18],> 500 µg/mL
same,IC50,[10]; IC50 WalK,> 2000 µM
